Experimental data: patent US10898475B2, “Bach1 inhibitors in combination with Nrf2 activators and pharmaceutical compositions thereof” (vTv Therapeutics LLC, priority 2014, dated 2021)

Tested on: HMOX1 in Normal Human Lung Fibroblasts (NHLF)
Assay: HMOX1 Protein Expression (immunostaining, fold induction or % positive cells over DMSO)
[1] = Homo sapiens, Fibroblast, read-out: Fold Induction of HMOX

Description: Normal Human Lung Fibroblasts (NHLF) obtained from Lonza were cultured in T-225 flasks using conditions recommended by the vendor (FGM-2 medium supplemented with 2% fetal bovine serum (FBS), fibroblast growth factor (hFGF-B) 0.5 mL, insulin 0.5 mL, and gentamicin/amphotericin-B 0.5 mL at 37° C. in a humidified atmosphere of 5% CO2).
For assays, cell were thawed and placed into culture in T225 flasks, grown to be 80% confluent, and harvested as described by the vendor. NHLF cells (2.5×10^4 cells per well) were plated in 384 well optilux tissue culture (BD) plates and incubated overnight in media prior to exposure to compound. Cells were incubated with DMSO or various combinations of either an Nrf2 Activator (DMF (dimethyl fumarate)/CDDO-Me) or a Bach1 Inhibitor for 16-18 hr. Cells were then fixed and permeabilized prior to incubation with HMOX1 antibody (abcam; 1:300 dilution in 1% BSA in PBS) for 1 hour. Cells were then washed and incubated with a solution of fluorescently-coupled goat anti-mouse antibody (Alexa 488 1:400 dilution Invitrogen) and Hoechst nuclear stain (1:2000; Invitrogen) in PBS containing 1% BSA for 1 hr. Immunostaining was detected using a GE InCell 2000 instrument at the following wavelengths: Hoechst Ex/Em 360/535 and Alexa 488 Ex/Em 480/535. Results were analyzed using GE InCell Analyzer software and represented as the increase fold of HMOX1 induction (Fold induction/FI) or the percentage of HMOX1 positive (% positive) cells over DMSO.

COC(=O)[C@]12CCC(C)(C)C[C@H]1[C@H]1C(=O)C=C3[C@@]4(C)C=C(C#N)C(=O)C(C)(C)[C@@H]4CC[C@@]3(C)[C@]1(C)CC2 [Bardoxolone Methyl, methyl 2-cyano-3,12-dioxooleana-1,9(11)dien-28-oate, reference compound]
increase HMOX1 (FIG. 1 bar B) (9.7 nM CDDO-Me alone): 2.5 fold | induction of HMOX1 protein (CDDO-Me alone, greater than or equal to 156 nM): 19 fold | fold induction at 0.0024 µM [1]: 1.31 | fold induction at 0.0048 µM [1]: 1.59 | fold induction at 0.0097 µM [1]: 2.53 | fold induction at 0.019 µM [1]: 5 | fold induction at 0.039 µM [1]: 8.48 | fold induction at 0.078 µM [1]: 12.2 | fold induction at 0.156 µM [1]: 19 | fold induction at 0.312 µM [1]: 16.4
